Assays:
B. subtilis 168 [1] = assay: fitness (endpoint OD595 vs no drug) (fraction); higher = more growth
How it was run: (§1)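 Fitness was defined as the optical density at the transition into stationary phase relative to the robust mean of no-drug control wells. Values were capped at 1. Cultures were started at OD595 0.01 in 384-well plates (30 µl, or 55 µl for S. pneumoniae) in TSB, LB Lennox or CY at 37 °C. OD595 was recorded every 30 min over 14 h, with the first reading subtracted as background.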

S. pneumoniae D39V [2] = assay: as above
How it was run: as §1

S. aureus DSM 20231 [3] = assay: as above
How it was run: as §1

B. subtilis 168 [4] = assay: Bliss interaction score (quartile over a dose matrix) (fitness difference); higher = more antagonism (negative = synergy)
How it was run: (§2)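 Fitness is OD595 at stationary-phase entry relative to the plate's robust no-drug mean, capped at 1. Single-drug fitness was inferred from combinations. The Bliss score is observed minus product-expected fitness, summarised by quartiles over technical, biological and donor/recipient replicates.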

S. aureus Newman = assay: as above
How it was run: as §2

S. pneumoniae D39V [5] = assay: as above
How it was run: as §2

S. aureus DSM 20231 [6] = assay: as above
How it was run: as §2
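For Bliss interaction score (quartile over a dose matrix) in this document: first quartile when negative (synergy) and third quartile when positive (antagonism).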

CC(=O)NC[C@H]1CN(c2ccc(N3CCOCC3)c(F)c2)C(=O)O1 [Linezolid] + Cc1ncc([N+](=O)[O-])n1CCO [Metronidazole]
fitness, one replicate
Settings | partner 0.625 µg/mL | partner 1.25 µg/mL | partner 2.5 µg/mL
B. subtilis 168 [1], first compound 0.0625 µg/mL | 0.86 | 0.895 | 0.875
S. aureus DSM 20231 [3], first compound 1 µg/mL | 0.0445 | 0.0462 | 0.042

Settings | fitness
B. subtilis 168 [1], first compound 0.125 µg/mL, partner 0.625 µg/mL | 0.648
B. subtilis 168 [1], first compound 0.125 µg/mL, partner 1.25 µg/mL | 0.607
B. subtilis 168 [1], first compound 0.125 µg/mL, partner 2.5 µg/mL | 0.597
B. subtilis 168 [1], first compound 0.25 µg/mL, partner 0.625 µg/mL | 0.0733
B. subtilis 168 [1], first compound 0.25 µg/mL, partner 1.25 µg/mL | 0.0982
B. subtilis 168 [1], first compound 0.25 µg/mL, partner 2.5 µg/mL | 0.105
B. subtilis 168 [1], first compound 0.5 µg/mL, partner 0.625 µg/mL | 0.0494
B. subtilis 168 [1], first compound 0.5 µg/mL, partner 1.25 µg/mL | 0.0531
B. subtilis 168 [1], first compound 0.5 µg/mL, partner 2.5 µg/mL | 0.0511
S. aureus DSM 20231 [3], first compound 0.125 µg/mL, partner 0.625 µg/mL | 0.947
S. aureus DSM 20231 [3], first compound 0.125 µg/mL, partner 1.25 µg/mL | 0.94
S. aureus DSM 20231 [3], first compound 0.125 µg/mL, partner 2.5 µg/mL | 0.942
S. aureus DSM 20231 [3], first compound 0.25 µg/mL, partner 0.625 µg/mL | 0.621
S. aureus DSM 20231 [3], first compound 0.25 µg/mL, partner 1.25 µg/mL | 0.723
S. pneumoniae D39V [2], first compound 0.105 µg/mL, partner 1.25 µg/mL | 0.866
S. pneumoniae D39V [2], first compound 0.105 µg/mL, partner 2.5 µg/mL | 0.877
S. pneumoniae D39V [2], first compound 0.105 µg/mL, partner 5 µg/mL | 0.841
S. pneumoniae D39V [2], first compound 0.2 µg/mL, partner 1.073 µg/mL | 0.832
S. pneumoniae D39V [2], first compound 0.2 µg/mL, partner 2.145 µg/mL | 0.804
S. pneumoniae D39V [2], first compound 0.2 µg/mL, partner 4.29 µg/mL | 0.817
S. pneumoniae D39V [2], first compound 0.21 µg/mL, partner 1.25 µg/mL | 0.776
S. pneumoniae D39V [2], first compound 0.21 µg/mL, partner 2.5 µg/mL | 0.78
S. pneumoniae D39V [2], first compound 0.21 µg/mL, partner 5 µg/mL | 0.753
S. pneumoniae D39V [2], first compound 0.4 µg/mL, partner 1.073 µg/mL | 0.741
S. pneumoniae D39V [2], first compound 0.4 µg/mL, partner 2.145 µg/mL | 0.77
S. pneumoniae D39V [2], first compound 0.4 µg/mL, partner 4.29 µg/mL | 0.714
S. pneumoniae D39V [2], first compound 0.42 µg/mL, partner 1.25 µg/mL | 0.663
S. pneumoniae D39V [2], first compound 0.42 µg/mL, partner 2.5 µg/mL | 0.646
S. pneumoniae D39V [2], first compound 0.42 µg/mL, partner 5 µg/mL | 0.63
S. pneumoniae D39V [2], first compound 0.8 µg/mL, partner 2.145 µg/mL | 0.445
S. pneumoniae D39V [2], first compound 0.8 µg/mL, partner 4.29 µg/mL | 0.424

Settings | Bliss interaction score
B. subtilis 168 [4] | 0.103
S. aureus DSM 20231 [6] | 0.111
S. aureus Newman | 0.0844
S. pneumoniae D39V [5] | 0.143

CC(=O)NC[C@H]1CN(c2ccc(N3CCOCC3)c(F)c2)C(=O)O1 [Linezolid] + Cc1onc(-c2ccccc2)c1C(=O)N[C@@H]1C(=O)N2[C@@H]1SC(C)(C)[C@@H]2C(=O)O [Oxacillin]
one replicate
Settings | fitness
B. subtilis 168 [1], first compound 0.0625 µg/mL, partner 0.0078 µg/mL | 0.913
B. subtilis 168 [1], first compound 0.0625 µg/mL, partner 0.0155 µg/mL | 0.809
B. subtilis 168 [1], first compound 0.0625 µg/mL, partner 0.031 µg/mL | 0.81
B. subtilis 168 [1], first compound 0.125 µg/mL, partner 0.0078 µg/mL | 0.594
B. subtilis 168 [1], first compound 0.125 µg/mL, partner 0.0155 µg/mL | 0.553
B. subtilis 168 [1], first compound 0.125 µg/mL, partner 0.031 µg/mL | 0.529
B. subtilis 168 [1], first compound 0.125 µg/mL, partner 0.075 µg/mL | 0.611
B. subtilis 168 [1], first compound 0.125 µg/mL, partner 0.15 µg/mL | 0.0387
B. subtilis 168 [1], first compound 0.125 µg/mL, partner 0.3 µg/mL | 0.0501
B. subtilis 168 [1], first compound 0.25 µg/mL, partner 0.0078 µg/mL | 0.0705
B. subtilis 168 [1], first compound 0.25 µg/mL, partner 0.0155 µg/mL | 0.0604
B. subtilis 168 [1], first compound 0.25 µg/mL, partner 0.031 µg/mL | 0.0611
B. subtilis 168 [1], first compound 0.25 µg/mL, partner 0.075 µg/mL | 0.241
B. subtilis 168 [1], first compound 0.25 µg/mL, partner 0.15 µg/mL | 0.0531
B. subtilis 168 [1], first compound 0.25 µg/mL, partner 0.3 µg/mL | 0.0536
B. subtilis 168 [1], first compound 0.5 µg/mL, partner 0.075 µg/mL | 0.0447
B. subtilis 168 [1], first compound 0.5 µg/mL, partner 0.15 µg/mL | 0.0563
B. subtilis 168 [1], first compound 0.5 µg/mL, partner 0.3 µg/mL | 0.0594
S. aureus DSM 20231 [3], first compound 1 µg/mL, partner 0.0156 µg/mL | 0.0486
S. aureus DSM 20231 [3], first compound 1 µg/mL, partner 0.0312 µg/mL | 0.0427
S. aureus DSM 20231 [3], first compound 1 µg/mL, partner 0.0625 µg/mL | 0.0557

Settings | fitness
B. subtilis 168 [1], first compound 0.125 µg/mL, partner 0.002 µg/mL | 0.567
B. subtilis 168 [1], first compound 0.125 µg/mL, partner 0.004 µg/mL | 0.513
B. subtilis 168 [1], first compound 0.125 µg/mL, partner 0.008 µg/mL | 0.515
B. subtilis 168 [1], first compound 0.25 µg/mL, partner 0.002 µg/mL | 0.112
B. subtilis 168 [1], first compound 0.25 µg/mL, partner 0.004 µg/mL | 0.108
B. subtilis 168 [1], first compound 0.25 µg/mL, partner 0.008 µg/mL | 0.102
B. subtilis 168 [1], first compound 0.5 µg/mL, partner 0.002 µg/mL | 0.0413
B. subtilis 168 [1], first compound 0.5 µg/mL, partner 0.004 µg/mL | 0.0471
B. subtilis 168 [1], first compound 0.5 µg/mL, partner 0.008 µg/mL | 0.0549
S. aureus DSM 20231 [3], first compound 0.125 µg/mL, partner 0.0156 µg/mL | 0.791
S. aureus DSM 20231 [3], first compound 0.125 µg/mL, partner 0.0312 µg/mL | 0.665
S. aureus DSM 20231 [3], first compound 0.125 µg/mL, partner 0.0625 µg/mL | 0.52
S. aureus DSM 20231 [3], first compound 0.25 µg/mL, partner 0.0156 µg/mL | 0.52
S. aureus DSM 20231 [3], first compound 0.25 µg/mL, partner 0.0312 µg/mL | 0.501
S. aureus DSM 20231 [3], first compound 0.25 µg/mL, partner 0.0625 µg/mL | 0.415
S. aureus DSM 20231 [3], first compound 0.5 µg/mL, partner 0.0156 µg/mL | 0.21
S. aureus DSM 20231 [3], first compound 0.5 µg/mL, partner 0.0312 µg/mL | 0.188
S. aureus DSM 20231 [3], first compound 0.5 µg/mL, partner 0.0625 µg/mL | 0.156
S. pneumoniae D39V [2], first compound 0.105 µg/mL, partner 0.01 µg/mL | 0.917
S. pneumoniae D39V [2], first compound 0.105 µg/mL, partner 0.02 µg/mL | 0.872
S. pneumoniae D39V [2], first compound 0.105 µg/mL, partner 0.04 µg/mL | 0.42
S. pneumoniae D39V [2], first compound 0.2 µg/mL, partner 0.01 µg/mL | 0.78
S. pneumoniae D39V [2], first compound 0.2 µg/mL, partner 0.02 µg/mL | 0.764
S. pneumoniae D39V [2], first compound 0.2 µg/mL, partner 0.04 µg/mL | 0.594
S. pneumoniae D39V [2], first compound 0.21 µg/mL, partner 0.01 µg/mL | 0.791
S. pneumoniae D39V [2], first compound 0.21 µg/mL, partner 0.02 µg/mL | 0.704
S. pneumoniae D39V [2], first compound 0.21 µg/mL, partner 0.04 µg/mL | 0.382
S. pneumoniae D39V [2], first compound 0.4 µg/mL, partner 0.01 µg/mL | 0.623
S. pneumoniae D39V [2], first compound 0.4 µg/mL, partner 0.02 µg/mL | 0.609
S. pneumoniae D39V [2], first compound 0.4 µg/mL, partner 0.04 µg/mL | 0.431
S. pneumoniae D39V [2], first compound 0.42 µg/mL, partner 0.01 µg/mL | 0.63
S. pneumoniae D39V [2], first compound 0.42 µg/mL, partner 0.02 µg/mL | 0.564
S. pneumoniae D39V [2], first compound 0.42 µg/mL, partner 0.04 µg/mL | 0.175
S. pneumoniae D39V [2], first compound 0.8 µg/mL, partner 0.04 µg/mL | 0.218

Settings | Bliss interaction score
B. subtilis 168 [4] | 0.0403
S. aureus DSM 20231 [6] | -0.0365
S. aureus Newman | -0.0461
S. pneumoniae D39V [5] | 0.136

Reference: the supplement of paper PMC10627819
